For one experiment, the system named is SMMC-7721. Description: Growth inhibition of human SMMC7721 cells by MTT assay. Format: functional, cell-based.
A further experiment concerns DNA. Nature of the experiment: Binding affinity to calf thymus DNA. The note with it: Bos taurus. Format: nucleic-acid assay.
Another experiment deals with P388. Nature of the experiment: Growth inhibition of mouse P388 cells by MTT assay. It is filed as functional, cell-based.
In the next experiment the test system is A549. Description: Growth inhibition of human A549 cells by SRB assay. Format: functional, cell-based. Background: Sulforhodamine B stains cellular protein and so reports cell mass.
For a further experiment, the system named is HeLa. Nature of the experiment: Growth inhibition of human HeLa cells by MTT assay. It is filed as functional, cell-based. On the technique in general: Tetrazolium dyes change colour on reduction, which living cells bring about.
The test system of a further experiment is HL-60. Nature of the experiment: Growth inhibition of human HL60 cells by MTT assay. Format: functional, cell-based.

The term IC50 denotes the midpoint of a concentration-inhibition curve. A low value points to inhibition by little substance. Broadly, the ΔTm is the shift of the melting midpoint relative to a reference.

`CCOc1ccc(-c2nc3c(cc4c5c(cccc53)C(=O)N(CCN(C)C)C4=O)[nH]2)cc1`: the IC50 amounted to 1020 nM in the experiment with SMMC-7721; 2480 nM with P388; 14700 nM with A549; 520 nM in the experiment with HeLa; 4580 nM in the experiment with HL-60. In addition, the shift in melting temperature (ΔTm) in the experiment with DNA came out at 10.5 °C.

Turning to `COc1ccc(-c2nc3c(cc4c5c(cccc53)C(=O)N(CCN(C)C)C4=O)[nH]2)cc1`, the concentration for half-maximal inhibition (IC50) with SMMC-7721 came to 1350 nM; in the experiment with P388, 3720 nM; in the experiment with A549, 2160 nM; with HeLa, 210 nM; in the experiment with HL-60, 460 nM. In the experiment with DNA, the shift in melting temperature (ΔTm) was found to be 7 °C.

In the case of `CN(C)CCN1C(=O)c2cccc3cc(N)cc(c23)C1=O` [AMONAFIDE], the IC50 in the experiment with SMMC-7721 came out at 4150 nM; with P388, 4560 nM; with A549 it was 13000 nM; in the experiment with HeLa, 1400 nM; with HL-60 it was 1630 nM.

For `CN(C)CCN1C(=O)c2cccc3c2c(cc2[nH]c(-c4ccncc4)nc23)C1=O`, the IC50 in the experiment with SMMC-7721 stood at 1760 nM; in the experiment on P388, 5650 nM; in the experiment on A549, 60900 nM; in the experiment on HeLa, 5350 nM; in the experiment on HL-60 it was 2660 nM. Moreover, in the experiment on DNA, the shift in melting temperature (ΔTm) amounted to 4.8 °C.

Turning to `CN(C)CCN1C(=O)c2cccc3c2c(cc2[nH]c(-c4ccccc4)nc23)C1=O`, the IC50 turned out to be 3360 nM with SMMC-7721; 860 nM with P388; 7540 nM with A549; 400 nM in the experiment with HeLa; 860 nM in the experiment with HL-60. Moreover, the ΔTm in the experiment on DNA came out at 7.2 °C.

Turning to `CN(C)CCN1C(=O)c2cccc3c2c(cc2[nH]c(-c4ccc[nH]4)nc23)C1=O`, the IC50 with SMMC-7721 is 2990 nM; in the experiment with P388 it was 210 nM; with A549, 450 nM; with HeLa it was 3300 nM; in the experiment on HL-60, 3030 nM. In addition, in the experiment on DNA, the ΔTm is 5.7 °C.

Take `COc1cc(-c2nc3c(cc4c5c(cccc53)C(=O)N(CCN(C)C)C4=O)[nH]2)ccc1O`: the IC50 is above 100000 nM in the experiment with SMMC-7721; 1920 nM in the experiment with P388; 5080 nM in the experiment with A549; above 100000 nM in the experiment on HeLa; 50500 nM in the experiment on HL-60. For the same compound, the ΔTm in the experiment with DNA was determined as 7.8 °C.

For the compound `CN(C)CCN1C(=O)c2cccc3c2c(cc2[nH]c(-c4cccs4)nc23)C1=O`, the 50% inhibitory concentration (IC50) in the experiment on SMMC-7721 amounted to 3270 nM; in the experiment with P388 it was 4150 nM; in the experiment with A549, 6670 nM; with HeLa, 1340 nM; with HL-60, 590 nM. Further, the ΔTm in the experiment on DNA turned out to be 6.9 °C.

As for `CN(C)CCN1C(=O)c2cccc3c2c(cc2[nH]c(-c4ccco4)nc23)C1=O`, the IC50 with SMMC-7721 came to 1300 nM; in the experiment with P388, 650 nM; in the experiment on A549 it was 7230 nM; with HeLa, 1730 nM; in the experiment with HL-60, 6240 nM. In addition, the shift in melting temperature (ΔTm) in the experiment on DNA turned out to be 6.8 °C.

As for `CN(C)CCN1C(=O)c2cccc3c2c(cc2[nH]c(-c4ccccn4)nc23)C1=O`, the IC50 came out at 3360 nM with SMMC-7721; 770 nM in the experiment with P388; 9330 nM with A549; 2710 nM in the experiment on HeLa; 300 nM in the experiment with HL-60. Besides, the ΔTm in the experiment with DNA was found to be 3.8 °C.

Regarding `COc1ccc(-c2nc3c(cc4c5c(cccc53)C(=O)N(CCN(C)C)C4=O)[nH]2)cc1OC`, the IC50 came out at 220 nM in the experiment with SMMC-7721; 1070 nM with P388; 600 nM in the experiment with A549; 5190 nM in the experiment with HeLa; 10400 nM in the experiment with HL-60. The shift in melting temperature (ΔTm) with DNA came out at 13.3 °C.

Regarding `CN(C)CCN1C(=O)c2cccc3c2c(cc2[nH]c(-c4ccc(O)cc4)nc23)C1=O`, the 50% inhibitory concentration (IC50) is above 100000 nM in the experiment with SMMC-7721; 1100 nM in the experiment with P388; 17800 nM in the experiment on A549; 13100 nM in the experiment on HeLa; 23000 nM with HL-60. Further, the ΔTm in the experiment with DNA stood at 6.3 °C.

Turning to `CN(C)CCN1C(=O)c2cccc3c2c(cc2[nH]c(-c4cccn4C)nc23)C1=O`, the IC50 was found to be 2900 nM in the experiment with SMMC-7721; 210 nM in the experiment with P388; 410 nM in the experiment on A549; 7980 nM in the experiment on HeLa; 3660 nM in the experiment with HL-60. Besides, the ΔTm in the experiment with DNA came to 6.2 °C.

Take `CN(C)CCN1C(=O)c2cccc3c2c(cc2[nH]c(-c4cccnc4)nc23)C1=O`: the IC50 in the experiment on SMMC-7721 is 1290 nM; with P388, 2310 nM; in the experiment on A549 it was 9970 nM; in the experiment with HeLa, 1160 nM; in the experiment on HL-60, 1330 nM. Also, the ΔTm in the experiment on DNA is 4 °C.

Take `Cc1ccc(-c2nc3c(cc4c5c(cccc53)C(=O)N(CCN(C)C)C4=O)[nH]2)cc1`: the 50% inhibitory concentration (IC50) was 580 nM with SMMC-7721; 5500 nM in the experiment on P388; 5530 nM in the experiment with A549; 320 nM in the experiment with HeLa; 1040 nM in the experiment on HL-60. Also, in the experiment on DNA, the shift in melting temperature (ΔTm) was 6.6 °C.

With `CN(C)CCN1C(=O)c2cccc3c2c(cc2[nH]c(-c4ccc(C(F)(F)F)cc4)nc23)C1=O`, the half-inhibitory concentration (IC50) came to 1630 nM in the experiment on SMMC-7721; 710 nM in the experiment with P388; 26200 nM in the experiment on A549; 400 nM in the experiment on HeLa; 4900 nM with HL-60. In addition, in the experiment on DNA, the ΔTm worked out at 4.8 °C.

Turning to `CN(C)CCN1C(=O)c2cccc3c2c(cc2[nH]c(-c4ccc(N(C)C)cc4)nc23)C1=O`, the IC50 is 2860 nM in the experiment with SMMC-7721; 1680 nM in the experiment with P388; 8500 nM in the experiment on A549; 250 nM in the experiment on HeLa; 1080 nM in the experiment with HL-60. The shift in melting temperature (ΔTm) in the experiment on DNA stood at 12.1 °C.

Take `CN(C)CCN1C(=O)c2cccc3c2c(cc2[nH]c(-c4ccsc4)nc23)C1=O`: the IC50 was 930 nM in the experiment on SMMC-7721; 160 nM in the experiment on P388; 8590 nM in the experiment with A549; 540 nM with HeLa; 580 nM with HL-60. Also, the ΔTm with DNA amounted to 8.4 °C.

On to `CN(C)CCN1C(=O)c2cccc3c2c(cc2[nH]c(-c4ccc(Cl)cc4)nc23)C1=O`, for which the IC50 worked out at 270 nM with SMMC-7721; 950 nM with P388; 9130 nM in the experiment on A549; 280 nM with HeLa; 3280 nM with HL-60. Further, in the experiment with DNA, the ΔTm came out at 7.1 °C.

Consider `CN(C)CCN1C(=O)c2cccc3c2c(cc2[nH]c(-c4ccoc4)nc23)C1=O`, for which the IC50 was found to be 880 nM with SMMC-7721; 710 nM with P388; 7480 nM with A549; 13900 nM in the experiment on HeLa; 5210 nM in the experiment on HL-60. The ΔTm with DNA is 6.7 °C.

(Values after ChEMBL document CHEMBL1149601, “Molecular design, chemical synthesis, and biological evaluation of '4-1' pentacyclic aryl/heteroaryl-imidazonaphthalimides” (Bioorg Med Chem, 2007).)
